US20260035365A1, “1H-PYRROLO[3,2-B]PYRIDINE DERIVATIVES AS IRREVERSIBLE INHIBITORS OF MUTANT EGFR FOR THE TREATMENT OF CANCER” (Bayer Aktiengesellschaft, priority 2022, published 2026)

Legend:
[1] = target: mutEGFR (D770_N771insSVD) (Homo sapiens, UniProt P00533, INS767SVD); test: Exon20-mutant-EGFR (D770_N771insSVD) TR-FRET kinase assay; assay type: biochemical; details: 2 mM ATP, 15 min preincubation
Outline: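 GST-fused human EGFR fragment R669-A1210 carrying the SVD insertion, Sf9-expressed, typically 15 pg/μl, was preincubated with compound for 15 min at 22° C in pH 7.0 Hepes/MgCl2 buffer. Phosphorylation was read by HTRF (665/620 nm ratio), normalised to no-inhibitor and no-enzyme controls.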

[2] = target: mutEGFR (D770_N771insNPG, T790); test: mutEGFR (D770_N771insNPG, T790) kinase assay; assay type: biochemical, human
Chain of mutEGFR (D770_N771insNPG, T790) (P00533 with tags, fused parts or gaps INS770NPG limits assumed): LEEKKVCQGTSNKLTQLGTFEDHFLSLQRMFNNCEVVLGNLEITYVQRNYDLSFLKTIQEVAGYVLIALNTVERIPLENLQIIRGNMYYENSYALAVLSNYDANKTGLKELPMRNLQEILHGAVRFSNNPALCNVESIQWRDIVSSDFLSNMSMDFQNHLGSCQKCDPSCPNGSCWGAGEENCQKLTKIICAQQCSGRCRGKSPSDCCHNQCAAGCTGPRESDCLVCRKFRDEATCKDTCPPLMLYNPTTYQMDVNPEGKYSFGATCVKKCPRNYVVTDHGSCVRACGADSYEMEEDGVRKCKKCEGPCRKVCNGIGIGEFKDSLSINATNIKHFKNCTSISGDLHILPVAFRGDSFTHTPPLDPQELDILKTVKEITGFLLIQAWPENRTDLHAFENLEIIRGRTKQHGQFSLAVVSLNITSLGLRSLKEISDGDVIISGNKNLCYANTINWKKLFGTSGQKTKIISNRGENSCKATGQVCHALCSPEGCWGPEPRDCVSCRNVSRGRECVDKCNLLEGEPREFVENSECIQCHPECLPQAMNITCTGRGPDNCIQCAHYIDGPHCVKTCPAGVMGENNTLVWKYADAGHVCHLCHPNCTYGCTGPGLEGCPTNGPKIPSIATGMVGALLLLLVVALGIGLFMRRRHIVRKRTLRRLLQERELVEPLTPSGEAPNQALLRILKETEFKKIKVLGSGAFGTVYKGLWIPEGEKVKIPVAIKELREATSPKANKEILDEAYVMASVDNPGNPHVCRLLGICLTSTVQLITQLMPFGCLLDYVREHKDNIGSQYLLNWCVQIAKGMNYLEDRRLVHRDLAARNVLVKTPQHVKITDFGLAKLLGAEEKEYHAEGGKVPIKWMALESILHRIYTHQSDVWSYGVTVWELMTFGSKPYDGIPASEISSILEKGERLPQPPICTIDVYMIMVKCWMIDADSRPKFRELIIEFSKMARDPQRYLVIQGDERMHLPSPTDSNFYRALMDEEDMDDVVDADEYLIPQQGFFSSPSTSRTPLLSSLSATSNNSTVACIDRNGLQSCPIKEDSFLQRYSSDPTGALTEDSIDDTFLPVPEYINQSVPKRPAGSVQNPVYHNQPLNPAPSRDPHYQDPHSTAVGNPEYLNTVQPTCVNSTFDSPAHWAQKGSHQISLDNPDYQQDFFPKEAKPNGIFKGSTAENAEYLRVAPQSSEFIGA

BA/F3 (insSVD) cells = test: Ba/F3 cell survival assay (Cell Titer-Glo), EGFR-insSVD; assay type: cell-based; details: Mus musculus, BaF3, 48 h, without IL-3, with EGF
Outline: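 Viability read by CellTiter-Glo luminescence after 48 h compound exposure at 37° C, 4000 cells/well. Retrovirally transduced, puromycin-selected Ba/F3 lines carrying EGFR-insSVD ± T790M grew IL-3-free with 10 ng/mL EGF for 2 days beforehand; compound delivered by 100 nL pin.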

[3] = tested on: BA/F3 (EGFR D770_N771 insSVD T790M) cells; test: Ba/F3 cell survival assay (Cell Titer-Glo), EGFR-insSVD T790M; assay type: cell-based; details: Ba/F3 EGFR-D770-N771ins_SVD; 48 h, without IL-3, with EGF
Procedure: 293T cells from ATCC were transfected with pBABEpuro expression constructs for WT EGFR or EGFR-insSVD, or EGFR-insSVD T790M, and pCL-Eco packaging vector using Fugene-6 transfection reagent from Promega. Plates were incubated at 37° C. for 48 h. Retrovirus was harvested by filtering the media supernatant through a 0.45 μm filter.
Ba/F3 cells purchased from DSMZ were grown in RPMI+10% FBS+10 ng/mL IL-3 and infected with filtered retroviral supernatant at a 1:2 dilution. Polybrene was added to a concentration of 8 μg/mL, plates were spun for 90 min, and incubated for 16 h at 37° C. 2 μg/mL puromycin was added to the infected cells 24 h after infection and cells were continually grown in the presence of puromycin and 10 ng/mL IL-3. Following stably expressing Ba/F3 cell lines were generated: Ba/F3-EGFR-WT, Ba/F3-EGFR-insSVD, Ba/F3-EGFR-insSVD T790M, (Ba/F3-vector-control).
For cell survival assays, Ba/F3 cells were grown to a density of 1-2 million cells per mL, spun down and resuspended in media without IL-3, and replated at a concentration of 200,000-500,000 cells per mL. The cells ectopically expressing WT EGFR, EGFR-insSVD, or EGFR-insSVD T790M were plated with 10 ng/mL Millipore Culture grade EGF. The cells ectopically expressing pBABEpuro empty vector were plated with 10 ng/mL IL-3.
2 days later, cells were plated in 50 μL in a 384 well plate at a concentration of 4000 cells per well for cells assayed in the absence of IL-3 and 2000 cells per well for cells assayed in the presence of IL-3. 100 nL of compound was added to each well using a 100 nL pin head, and plates were incubated at 37° C. for 48 h.
Cell viability was measured by adding 20 μL of Cell Titer-Glo Luminescent Cell Viability Reagent diluted 1:3 in PBS. Plates were sealed with Perkin Elmer Top-Seal, inverted several times to mix, and immediately centrifuged at 1000 rpm for 2 min. Plates were incubated in low light conditions for 8-10 min and luminescence was measured.

Chain of mutEGFR (D770_N771insSVD) (P00533 with tags, fused parts or gaps INS767SVD limits assumed): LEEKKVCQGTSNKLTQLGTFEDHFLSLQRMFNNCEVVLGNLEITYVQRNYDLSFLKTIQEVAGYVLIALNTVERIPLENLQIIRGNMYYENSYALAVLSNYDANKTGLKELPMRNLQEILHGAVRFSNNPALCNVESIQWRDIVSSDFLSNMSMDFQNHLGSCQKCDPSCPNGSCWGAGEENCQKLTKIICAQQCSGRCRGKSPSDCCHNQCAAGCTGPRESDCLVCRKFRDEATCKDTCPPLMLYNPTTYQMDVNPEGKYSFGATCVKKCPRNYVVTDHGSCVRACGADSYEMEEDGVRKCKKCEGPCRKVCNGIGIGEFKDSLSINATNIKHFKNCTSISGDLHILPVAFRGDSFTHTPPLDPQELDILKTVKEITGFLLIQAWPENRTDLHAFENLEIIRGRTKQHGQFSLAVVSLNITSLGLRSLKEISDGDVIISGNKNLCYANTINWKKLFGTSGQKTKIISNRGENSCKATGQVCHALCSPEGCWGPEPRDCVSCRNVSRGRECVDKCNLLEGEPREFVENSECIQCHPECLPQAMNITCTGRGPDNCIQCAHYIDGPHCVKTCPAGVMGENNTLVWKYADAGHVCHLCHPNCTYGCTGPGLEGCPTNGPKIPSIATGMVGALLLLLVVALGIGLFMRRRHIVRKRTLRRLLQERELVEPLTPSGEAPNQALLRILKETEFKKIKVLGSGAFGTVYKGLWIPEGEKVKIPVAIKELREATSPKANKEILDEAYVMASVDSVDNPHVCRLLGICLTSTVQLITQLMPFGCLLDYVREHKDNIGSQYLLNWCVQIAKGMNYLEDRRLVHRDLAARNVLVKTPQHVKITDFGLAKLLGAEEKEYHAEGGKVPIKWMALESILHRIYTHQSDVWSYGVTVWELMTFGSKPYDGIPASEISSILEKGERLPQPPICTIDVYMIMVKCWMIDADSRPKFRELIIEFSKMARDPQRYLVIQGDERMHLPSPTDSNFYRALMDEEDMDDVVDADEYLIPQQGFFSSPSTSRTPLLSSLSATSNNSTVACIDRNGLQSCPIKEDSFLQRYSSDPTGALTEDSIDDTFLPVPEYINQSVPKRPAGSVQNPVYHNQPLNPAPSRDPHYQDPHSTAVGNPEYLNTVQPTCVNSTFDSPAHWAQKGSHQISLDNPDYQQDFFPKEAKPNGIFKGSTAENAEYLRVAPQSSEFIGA

SMILES | IC50 [1] | IC50 [2] | IC50 (BA/F3 (insSVD) cells) | IC50 [3]
C=CC(=O)NCCOc1cnccc1-c1[nH]c2cccnc2c1-c1ccc(F)cc1 [Example 1, N-[2-({4-[3-(4-fluorophenyl)-1H-pyrrolo[3,2-b]pyridin-2-yl]pyridin-3-yl}oxy)ethyl]prop-2-enamide] | 414 nM | 606 nM | 4.47 µM | 9.98 µM
C=CC(=O)NCCOc1cnccc1-c1[nH]c2cccnc2c1-c1ccccc1 [Example 2, N-(2-{[4-(3-phenyl-1H-pyrrolo[3,2-b]pyridin-2-yl)pyridin-3-yl]oxy}ethyl)prop-2-enamide] | 461 nM | 751 nM | 5.02 µM | 9.98 µM
C=CC(=O)N(C)CCCOc1cnccc1-c1[nH]c2cccnc2c1-c1ccccc1 [Example 3, N-methyl-N-(3-{[4-(3-phenyl-1H-pyrrolo[3,2-b]pyridin-2-yl)pyridin-3-yl]oxy}propyl)prop-2-enamide] | 2840 nM | 3410 nM | 9.98 µM | 9.98 µM
C=CC(=O)N(C)CCOc1cnccc1-c1[nH]c2cccnc2c1-c1ccccc1 [Example 4, N-methyl-N-(2-{[4-(3-phenyl-1H-pyrrolo[3,2-b]pyridin-2-yl)pyridin-3-yl]oxy}ethyl)prop-2-enamide] | 7.58 nM | 17.1 nM | 0.346 µM | 9.98 µM
C=CC(=O)NCCCOc1cnccc1-c1[nH]c2cccnc2c1-c1ccccc1 [Example 5, N-(3-{[4-(3-phenyl-1H-pyrrolo[3,2-b]pyridin-2-yl)pyridin-3-yl]oxy}propyl)prop-2-enamide] | 11300 nM | > 20000 nM | 9.98 µM | 9.98 µM
C=CC(=O)NCCOc1cnccc1-c1[nH]c2cc(F)cnc2c1-c1ccccc1 [Example 6, N-(2-{[4-(6-fluoro-3-phenyl-1H-pyrrolo[3,2-b]pyridin-2-yl)pyridin-3-yl]oxy}ethyl)prop-2-enamide] | 3850 nM | 5510 nM | 7.08 µM | 9.98 µM
C=CC(=O)N(C)CCOc1cnccc1-c1[nH]c2cc(F)cnc2c1-c1ccccc1 [Example 7, N-(2-{[4-(6-fluoro-3-phenyl-1H-pyrrolo[3,2-b]pyridin-2-yl)pyridin-3-yl]oxy}ethyl)-N-methylprop-2-enamide] | 147 nM | 316 nM | 4.15 µM | 6.99 µM
C=CC(=O)N(C)CCOc1cnccc1-c1[nH]c2ccc(OC)nc2c1-c1ccccc1 [Example 8, N-(2-{[4-(5-methoxy-3-phenyl-1H-pyrrolo[3,2-b]pyridin-2-yl)pyridin-3-yl]oxy}ethyl)-N-methylprop-2-enamide] | 198 nM | 520 nM | 5.27 µM | 8.93 µM
C=CC(=O)N(C)CCOc1cnccc1-c1[nH]c2cccnc2c1-c1cccc(C)c1 [Example 9, N-methyl-N-[2-({4-[3-(3-methylphenyl)-1H-pyrrolo[3,2-b]pyridin-2-yl]pyridin-3-yl}oxy)ethyl]prop-2-enamide] | 6.01 nM | 13.5 nM | 0.293 µM | 8.72 µM
C=CC(=O)N(C)CCOc1cnccc1-c1[nH]c2cccnc2c1-c1ccc(Cl)c(C)c1 [Example 10, N-[2-({4-[3-(4-chloro-3-methylphenyl)-1H-pyrrolo[3,2-b]pyridin-2-yl]pyridin-3-yl}oxy)ethyl]-N-methylprop-2-enamide] | 73.1 nM | 90.6 nM | 2.93 µM | 9.98 µM
C=CC(=O)N(C)CCOc1cnccc1-c1[nH]c2cccnc2c1-c1ccc(Cl)cc1 [Example 11, N-[2-({4-[3-(4-chlorophenyl)-1H-pyrrolo[3,2-b]pyridin-2-yl]pyridin-3-yl}oxy)ethyl]-N-methylprop-2-enamide] | 13.4 nM | 46.2 nM | 1.12 µM | 9.98 µM
C=CC(=O)N(C)CCOc1cnccc1-c1[nH]c2cccnc2c1-c1ccc(F)c(C)c1 [Example 12, N-[2-({4-[3-(4-fluoro-3-methylphenyl)-1H-pyrrolo[3,2-b]pyridin-2-yl]pyridin-3-yl}oxy)ethyl]-N-methylprop-2-enamide] | 8.68 nM | 14.2 nM | 0.538 µM | 9.1 µM
C=CC(=O)N(C)CCOc1cnccc1-c1[nH]c2cccnc2c1-c1ccc(Cl)c(C(=O)OC)c1 [Example 13, Methyl 2-chloro-5-[2-(3-{2-[methyl(prop-2-enoyl)amino]ethoxy}pyridin-4-yl)-1H-pyrrolo[3,2-b]pyridin-3-yl]benzoate] | 720 nM | 1390 nM | 6.19 µM | 9.98 µM
C=CC(=O)N(C)CCOc1cnccc1-c1[nH]c2cccnc2c1-c1cccc(F)c1 [Example 14, N-[2-({4-[3-(3-fluorophenyl)-1H-pyrrolo[3,2-b]pyridin-2-yl]pyridin-3-yl}oxy)ethyl]-N-methylprop-2-enamide] | 16.4 nM | 46.3 nM | 0.833 µM | 9.98 µM
C=CC(=O)N(C)CCOc1cnccc1-c1[nH]c2cccnc2c1-c1ccc(Cl)c(OC)c1 [Example 15, N-[2-({4-[3-(4-chloro-3-methoxyphenyl)-1H-pyrrolo[3,2-b]pyridin-2-yl]pyridin-3-yl}oxy)ethyl]-N-methylprop-2-enamide] | 1540 nM | 4850 nM | 9.24 µM | 9.98 µM
C=CC(=O)N(C)CCOc1cnccc1-c1[nH]c2cccnc2c1-c1ccccc1OC [Example 17, N-[2-({4-[3-(2-methoxyphenyl)-1H-pyrrolo[3,2-b]pyridin-2-yl]pyridin-3-yl}oxy)ethyl]-N-methylprop-2-enamide] | 569 nM | 1700 nM | 8.16 µM | 9.98 µM
C=CC(=O)N(C)CCOc1cnccc1-c1[nH]c2cccnc2c1-c1ccc2cccnc2c1 [Example 18, N-methyl-N-[2-({4-[3-(quinolin-7-yl)-1H-pyrrolo[3,2-b]pyridin-2-yl]pyridin-3-yl}oxy)ethyl]prop-2-enamide] | 549 nM | 1670 nM | 7.98 µM | 9.98 µM
C=CC(=O)N(C)CCOc1cnccc1-c1[nH]c2cccnc2c1-c1cccc(F)c1OC [Example 19, N-[2-({4-[3-(3-fluoro-2-methoxyphenyl)-1H-pyrrolo[3,2-b]pyridin-2-yl]pyridin-3-yl}oxy)ethyl]-N-methylprop-2-enamide] | 178 nM | 797 nM | 6.1 µM | 9.98 µM
C=CC(=O)N1CCOCC1COc1cnccc1-c1[nH]c2cccnc2c1-c1ccccc1 (stereo not drawn) [Example 149, 1-[3-({[4-(3-phenyl-1H-pyrrolo[3,2-b]pyridin-2-yl)pyridin-3-yl]oxy}methyl)morpholin-4-yl]prop-2-en-1-one] | 775 nM | 17700 nM | 1.29 µM | –
CN(C)C/C=C/C(=O)N1CCOCC1COc1cnccc1-c1[nH]c2cccnc2c1-c1ccccc1 (stereo not drawn) [Example 150, (2E)-4-(dimethylamino)-1-[3-({[4-(3-phenyl-1H-pyrrolo[3,2-b]pyridin-2-yl)pyridin-3-yl]oxy}methyl)morpholin-4-yl]but-2-en-1-one] | 4660 nM | > 20000 nM | 9.81 µM | –
C=CC(=O)N1CCOCC1COc1cnccc1-c1[nH]c2cccnc2c1-c1cc(Cl)ccc1F (stereo not drawn) [Example 151, 1-{3-[({4-[3-(5-chloro-2-fluorophenyl)-1H-pyrrolo[3,2-b]pyridin-2-yl]pyridin-3-yl}oxy)methyl]morpholin-4-yl}prop-2-en-1-one] | 11 nM | 81.1 nM | 0.282 µM | –
CN(C)C/C=C/C(=O)N1CCOCC1COc1cnccc1-c1[nH]c2cccnc2c1-c1cc(Cl)ccc1F (stereo not drawn) [Example 152, (2E)-1-{3-[({4-[3-(5-chloro-2-fluorophenyl)-1H-pyrrolo[3,2-b]pyridin-2-yl]pyridin-3-yl}oxy)methyl]morpholin-4-yl}-4-(dimethylamino)but-2-en-1-one] | 164 nM | 353 nM | 1.88 µM | –
